In ChEMBL document CHEMBL4665659, “Utilizing comprehensive and mini-kinome panels to optimize the selectivity of quinoline inhibitors for cyclin G associated kinase (GAK)” (Bioorg Med Chem Lett, 2019):
The source made the active and inactive calls. The calls are words filed in the database; no cut-off is given here.

Columns and labels:
[1] = target: T1, Cyclin-G-associated kinase (Homo sapiens, UniProt O14976); assay: Binding affinity to human wild type partial length GAK (G13 to Y338 residues) expressed in bacterial expression system by KinomeScan method
T1 sequence (O14976 whole entry): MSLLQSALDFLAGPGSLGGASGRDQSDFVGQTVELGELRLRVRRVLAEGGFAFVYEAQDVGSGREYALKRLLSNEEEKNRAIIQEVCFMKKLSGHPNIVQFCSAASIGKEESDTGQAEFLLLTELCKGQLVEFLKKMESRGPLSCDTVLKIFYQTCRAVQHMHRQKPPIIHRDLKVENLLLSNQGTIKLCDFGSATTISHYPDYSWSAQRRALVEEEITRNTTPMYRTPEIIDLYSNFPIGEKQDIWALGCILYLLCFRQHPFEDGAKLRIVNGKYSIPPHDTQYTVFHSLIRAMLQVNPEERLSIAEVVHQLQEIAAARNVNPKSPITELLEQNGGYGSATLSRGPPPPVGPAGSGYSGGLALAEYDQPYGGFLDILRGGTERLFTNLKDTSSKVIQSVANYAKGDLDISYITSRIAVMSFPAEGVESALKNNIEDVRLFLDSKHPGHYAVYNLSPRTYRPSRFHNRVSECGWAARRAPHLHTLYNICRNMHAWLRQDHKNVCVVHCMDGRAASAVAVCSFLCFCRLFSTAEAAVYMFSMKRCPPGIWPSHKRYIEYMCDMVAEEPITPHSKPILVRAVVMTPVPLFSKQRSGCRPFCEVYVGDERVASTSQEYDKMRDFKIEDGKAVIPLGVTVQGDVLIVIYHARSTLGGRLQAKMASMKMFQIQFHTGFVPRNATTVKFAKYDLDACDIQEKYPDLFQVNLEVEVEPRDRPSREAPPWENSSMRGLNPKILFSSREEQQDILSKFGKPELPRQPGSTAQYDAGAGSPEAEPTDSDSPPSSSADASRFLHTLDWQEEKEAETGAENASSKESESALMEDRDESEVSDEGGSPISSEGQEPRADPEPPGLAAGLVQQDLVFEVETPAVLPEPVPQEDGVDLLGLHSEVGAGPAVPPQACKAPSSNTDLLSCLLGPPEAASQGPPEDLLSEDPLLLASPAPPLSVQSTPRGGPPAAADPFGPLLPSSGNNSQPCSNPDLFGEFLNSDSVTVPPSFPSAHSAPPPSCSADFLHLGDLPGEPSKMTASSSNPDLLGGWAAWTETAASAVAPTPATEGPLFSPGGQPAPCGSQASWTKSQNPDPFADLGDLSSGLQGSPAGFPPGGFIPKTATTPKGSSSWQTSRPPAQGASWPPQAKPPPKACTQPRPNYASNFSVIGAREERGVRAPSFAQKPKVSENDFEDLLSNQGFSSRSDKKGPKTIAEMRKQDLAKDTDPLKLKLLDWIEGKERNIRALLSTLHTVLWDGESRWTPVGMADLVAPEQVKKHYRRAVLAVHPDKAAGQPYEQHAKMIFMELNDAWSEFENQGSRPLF

[2] = species on record: Homo sapiens; assay: Binding affinity to human ABL at 1 uM by Kinomescan method
[3] = target: RAF proto-oncogene serine/threonine-protein kinase (Homo sapiens) (UniProt P04049); assay: Inhibition of human wild type partial length C-Raf (I330 to T640 residues) expressed in bacterial expression system at 1 uM by Kinomescan method relative to control
[4] = target: T2, Ephrin type-A receptor 1 (Homo sapiens) (UniProt P21709); assay: Inhibition of human wild type partial length EphA1 (V588 to I913 residues) expressed in bacterial expression system at 1 uM by Kinomescan method
T2 sequence (whole entry): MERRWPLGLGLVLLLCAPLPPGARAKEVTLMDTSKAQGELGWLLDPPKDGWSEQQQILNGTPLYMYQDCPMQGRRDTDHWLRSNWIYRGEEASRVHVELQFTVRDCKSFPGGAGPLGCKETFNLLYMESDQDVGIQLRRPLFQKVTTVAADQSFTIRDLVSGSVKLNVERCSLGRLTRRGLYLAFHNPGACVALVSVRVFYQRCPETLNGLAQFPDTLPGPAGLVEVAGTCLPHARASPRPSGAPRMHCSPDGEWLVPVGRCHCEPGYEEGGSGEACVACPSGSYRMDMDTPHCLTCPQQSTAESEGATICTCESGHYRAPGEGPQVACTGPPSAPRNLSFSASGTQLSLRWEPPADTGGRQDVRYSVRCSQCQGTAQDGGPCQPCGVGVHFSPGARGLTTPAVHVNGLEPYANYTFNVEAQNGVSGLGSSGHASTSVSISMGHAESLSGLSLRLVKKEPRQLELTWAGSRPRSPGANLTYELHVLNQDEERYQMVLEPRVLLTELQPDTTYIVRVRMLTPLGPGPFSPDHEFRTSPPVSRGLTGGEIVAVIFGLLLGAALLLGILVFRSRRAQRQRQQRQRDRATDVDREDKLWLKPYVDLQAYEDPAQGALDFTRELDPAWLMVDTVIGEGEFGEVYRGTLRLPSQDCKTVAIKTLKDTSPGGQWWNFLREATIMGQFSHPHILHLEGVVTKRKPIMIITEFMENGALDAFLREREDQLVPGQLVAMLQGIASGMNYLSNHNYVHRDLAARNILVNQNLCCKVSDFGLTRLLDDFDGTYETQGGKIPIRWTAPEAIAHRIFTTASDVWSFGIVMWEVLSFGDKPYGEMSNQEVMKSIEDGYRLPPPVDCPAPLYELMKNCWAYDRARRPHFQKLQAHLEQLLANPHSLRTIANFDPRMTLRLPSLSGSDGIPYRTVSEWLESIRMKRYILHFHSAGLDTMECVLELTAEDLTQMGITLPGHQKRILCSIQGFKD

[5] = target: Tyrosine-protein kinase Fyn (Homo sapiens) (UniProt P06241); assay: Inhibition of human wild type partial length Fyn (T243 to L534 residues) expressed in bacterial expression system at 1 uM by Kinomescan method
Sequence of Tyrosine-protein kinase Fyn (Homo sapiens) (P06241 2-537 limits assumed): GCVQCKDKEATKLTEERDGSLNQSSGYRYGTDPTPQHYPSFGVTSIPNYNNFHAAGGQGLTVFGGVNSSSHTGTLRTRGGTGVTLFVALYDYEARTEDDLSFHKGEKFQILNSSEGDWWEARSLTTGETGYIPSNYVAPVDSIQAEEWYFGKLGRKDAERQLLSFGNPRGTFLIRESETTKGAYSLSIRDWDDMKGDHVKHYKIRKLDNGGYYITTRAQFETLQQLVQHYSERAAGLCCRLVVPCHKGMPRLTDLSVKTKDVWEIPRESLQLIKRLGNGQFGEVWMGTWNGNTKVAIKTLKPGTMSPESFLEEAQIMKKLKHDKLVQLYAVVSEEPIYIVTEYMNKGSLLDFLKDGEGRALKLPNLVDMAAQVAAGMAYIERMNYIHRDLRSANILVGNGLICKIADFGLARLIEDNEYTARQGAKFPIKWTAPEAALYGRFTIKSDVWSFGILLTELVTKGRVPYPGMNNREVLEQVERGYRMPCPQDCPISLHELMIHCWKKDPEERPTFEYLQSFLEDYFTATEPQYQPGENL

Sequence of RAF proto-oncogene serine/threonine-protein kinase (Homo sapiens) (P04049 whole entry, the tested form may be a part): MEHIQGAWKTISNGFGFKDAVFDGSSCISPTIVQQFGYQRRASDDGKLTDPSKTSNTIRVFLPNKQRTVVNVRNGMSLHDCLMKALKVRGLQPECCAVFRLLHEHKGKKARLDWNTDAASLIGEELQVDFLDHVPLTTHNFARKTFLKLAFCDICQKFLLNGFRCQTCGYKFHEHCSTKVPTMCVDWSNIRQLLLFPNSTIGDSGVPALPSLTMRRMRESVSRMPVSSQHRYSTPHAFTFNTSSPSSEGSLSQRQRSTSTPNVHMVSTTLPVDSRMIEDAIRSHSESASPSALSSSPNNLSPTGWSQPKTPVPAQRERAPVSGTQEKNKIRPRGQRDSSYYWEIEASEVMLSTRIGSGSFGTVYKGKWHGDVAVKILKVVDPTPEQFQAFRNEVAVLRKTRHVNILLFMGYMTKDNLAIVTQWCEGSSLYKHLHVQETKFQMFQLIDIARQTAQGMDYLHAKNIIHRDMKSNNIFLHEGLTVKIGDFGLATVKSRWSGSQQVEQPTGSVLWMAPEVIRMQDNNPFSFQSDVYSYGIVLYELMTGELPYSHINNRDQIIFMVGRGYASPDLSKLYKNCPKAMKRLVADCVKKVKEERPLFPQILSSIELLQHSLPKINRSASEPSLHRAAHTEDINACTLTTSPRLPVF

Kd [1] [nM]	Activity [2]	inhibition [3] [%]	inhibition [4]	inhibition [5]	Compound
13	Active	70	Active	Active	COc1cc(Nc2ccnc3cc(Cl)ccc23)cc(OC)c1OC
7.6	Active	70	Active	Active	COc1cc(Nc2ccnc3cc(I)ccc23)cc(OC)c1OC

Further lines, the compound ahead of its results:

Compound	Kd [1] [nM]	Activity [2]	inhibition [3] [%]	inhibition [4]	inhibition [5]
COc1cc(Nc2ccnc3cc(Br)ccc23)cc(OC)c1OC	8.6	Active	70	Active	Active
COc1cc(Nc2ccnc3cc(C(F)(F)F)ccc23)cc(OC)c1OC	23	Active	70	Active	Active
COc1cc(Nc2ccnc3cc(C#N)ccc23)cc(OC)c1OC	43	Active	70	Active	Active
